This note sets out measurements from a melting point compilation (Tetko et al.; mined from patent text by program, amines drawn as free bases though some values may be those of a salt).

Bounds are passed on as bounds.

As a reminder, the melting point is the temperature of the solid-liquid transition. The compound `COc1cc(C(C)C)c2c(c1)S(=O)(=O)N(COc1cc(C(=O)O)nn1-c1ccccc1)C2=O` registered a melting point of 193 to 194 °C. As to `COc1cc2ncnc(N3CCNCC3)c2cc1OC`, the melting point is 178 to 179 °C. Next, `O=c1cc(-c2ccncc2)nc2n1CCCN2`: 219 °C.

In the case of `CCCCc1cn(CCC2CC2)c(=O)n1Cc1ccc(-c2ccccc2-c2nnn[nH]2)nc1`, the melting point fell in the range of 182 to 183 °C.

`CCCc1c(OCCCCCOc2ccc(Cl)cc2CCC(=O)O)ccc2c1OCCC2=O`: the melting point lay in the range of 101 to 103 °C. Compound `COc1ccc2c(c1)c(Cc1cc(=O)n(-c3cnc4ccccc4n3)[nH]1)c(C)n2C(=O)c1ccc(Cl)cc1` displayed a melting point of 231 to 233 °C. `COc1ccc2c(c1)C(c1ccc(N)cc1)=NN(C(=O)C1CC1)C(C)=C2` registered a melting point of 214 to 216 °C. In the case of `O=C(O)c1ccc(-c2csc(-c3cccnc3)n2)cc1`, the melting point is above 300 °C. Take `CC(Cc1ccccc1)CN(C)C1CCC(c2ccc3[nH]c(=O)oc3c2)CC1` (centres undefined): the melting point was 43 to 48 °C. With `CCOC(=O)C1=CNc2ccc(C(F)(F)F)cc2CC1c1ccccc1Cl` (centres undefined) the figure was 190 to 192 °C. The compound `CC1(C)OC(=O)Nc2ccc(-c3cc(F)cc(C(F)(F)F)c3)cc21` registered a melting point of 207 to 208 °C. Turning to `Nc1nc2ccccc2c2c1ncn2CCOCc1cc2ccccc2o1`, the melting point fell in the range of 201 to 203 °C. Turning to `CNC(=O)CN(CCN(CCN(CC(=O)O)CC(=O)NC)CC(=O)O)CC(=O)O`, the melting point lay within 78 to 82 °C. In the case of `CC1CCCCN1C(=O)COc1nc(C(Cl)(Cl)Cl)ns1` (centres undefined), the melting point is 88 °C. Take `COC(=O)c1cccc(-c2nc(=O)c3ccccc3s2)c1`: the melting point was 164 °C. In the case of `O=C1c2ccccc2OCC1Br` (centres undefined), the melting point lay within 48 to 51 °C. `CCCCCCCCCCCCCCCCCC(=O)N[C@@H](C)C(=O)OC` yielded a melting point of 84 °C. The compound `CN(C)C=Nc1nc2ncn(C)c(=S)n2n1` gave a melting point above 300 °C.

Consider `CN1C(=O)C(=O)c2cc([N+](=O)[O-])cc(C(F)(F)F)c21`, for which the melting point lay within 168 to 169 °C.

`COc1ccccc1NC(C#N)c1c(Cl)cccc1Cl` (centres undefined) gave a melting point of 118 °C. Next, `Cn1c(NN)nc2ccc(O)cc2c1=O`: above 300 °C. For the compound `CC1(C)OC(=O)C(Oc2cccc(N)n2)=C1c1ccc(S(C)(=O)=O)cc1`, the melting point fell in the range of 165 to 166 °C. Consider `Cc1nc(-c2ccccc2)nc(N2CCCC2C(=O)O)c1C` (centres undefined), for which the melting point was in the range of 90 to 92 °C.

`CS(=O)(=O)c1ccc(-c2cc(-n3ccc(C(F)(F)F)n3)c3ccccc3n2)cc1` yielded a melting point of 194 to 196 °C. `CCOC(=O)/C=C/C=C/c1cccc(-c2c(CC(=O)Nc3ccc(F)cc3C(F)(F)F)c(=O)oc3cc(Cl)c(C)cc23)c1`: the melting point fell in the range of 216 to 218 °C. Compound `Nc1ccc(C2=NNC(=O)CC2)cc1N` showed a melting point of 226 °C.

Consider `CCS(=O)c1nc(-c2ccc(OC)cc2)c(-c2ccc(OC)cc2)[nH]1` (centres undefined), for which the melting point was 161 to 162 °C.

Compound `CCN1c2ncccc2NC(=O)c2cc(CCc3ccccc3)cnc21` showed a melting point of 183 to 184 °C. For `CS(=O)(=O)c1ccc(-c2cnn(-c3cccc(Cl)c3)c(=O)c2Oc2ccc(F)cc2)cc1`, the melting point is 211 to 213 °C.

Compound `COC(=O)c1ccc(O)c(C(=O)CC(=O)c2cc(C)ccc2OC)c1` displayed a melting point of 145 to 147 °C. With `CCCCc1nc(N)c(C(=O)OCC)[nH]1` the figure was 103 to 106 °C; with `CC#CC(C)(C)NC(=O)C(CC)Oc1ccc2ncc(C#N)cc2c1` (centres undefined), 116 to 118 °C. With `C=C(Cl)Cc1c(Cl)nc(NC=O)nc1Cl`, the melting point is 113 to 115 °C. In the case of `CNc1cc(Cl)cc(NCCOC)c1[N+](=O)[O-]`, the melting point came to 93 °C. With `CC(c1ccccc1)c1ccc(N)c([N+](=O)[O-])c1` (centres undefined) the figure was 96 to 98 °C; with `N#Cc1ccc(CCl)cn1`, 45 to 47 °C; with `COc1cc(-c2nc(N(C)CCN)c3c(C)c(C#N)sc3n2)cc(OC)c1OC`, above 290 °C.

With `CC(C)OC(=O)CCC(=O)c1ccc(-c2ccccc2F)cc1`, the melting point was in the range of 65 to 66 °C.

Compound `O=C(c1ccccc1)N1CCC(CN2CCc3c([nH]c4ccccc34)C2)CC1` had a melting point of 162 to 164 °C. In turn, `COc1ccc(C(=O)c2[nH]c(=O)[nH]c2COC(C)=O)cc1` showed a melting point of 155 to 162 °C. In the case of `CCn1c(=O)c2c(nc(C=Cc3cccc(OC)c3O)n2C)n(CC)c1=O`, the melting point lay within 225 to 226 °C. Next, `CCC(=O)NC(C)(C(=O)NS(=O)(=O)c1ccc(C)cc1)C(C)C` (centres undefined): 166 to 168 °C; `Cc1c2c(nn1CCO)c(N)nc1ccccc12`: 226 to 228 °C; `CC(C)(C)OC(=O)NCCn1cnc2cnc3ccccc3c21`: 154 to 155 °C. In the case of `CC(C)CC1(C(CCNC(=O)c2ccc(F)c(F)c2)C(=O)NO)CCN(CCc2ccccc2)C1=O` (centres undefined), the melting point lay within 132 to 134 °C.

With `COC(=O)c1cc(C(=O)O)c2c(Cl)cc(Cl)cc2n1`, the melting point is 260 to 262 °C. Next, `CC1(C)CC2(CC(C)(C)N1)OC1(CCCCCCCCCCC1)NC2=O`: 97 °C.

`CCc1ccc(S(=O)(=O)c2c(N)c3nncn3c3nc4ccccc4nc23)cc1` came in with a melting point above 300 °C. `Cc1cccc2[nH]c3cc(O)ccc3c12` showed a melting point of 191 °C. Turning to `CCCCc1ccc(C(=O)NCCCCn2c(CCOC)nc3c(N)nc4ccccc4c32)nc1`, the melting point fell in the range of 54.9 to 55.2 °C. In the case of `COc1cc(-n2nc(C#N)cc2-c2ccc(S(C)(=O)=O)cc2)ccc1F`, the melting point was 169 to 171 °C.

`O=C(Nc1ccc(Br)cc1)C(=O)N1CCC(Cc2ccccc2)CC1` came in with a melting point of 131 to 132 °C. Compound `CC(=O)OCC(=O)C1(OC(C)=O)CCC2C3CC(C)C4=CC(=O)C=CC4(C)C3C(O)CC21C` (centres undefined) showed a melting point of 216 °C. Next, `OCc1ccnc2cc(Cl)ccc12`: 160 °C; `CCc1ccc2oc(C(=O)Nc3ccc(-c4ccc(S(=O)(=O)NC(C(=O)OC)C(C)C)cc4)cc3)c(C)c2c1OC(C)C` (centres undefined): 182 to 184 °C; `CCc1cc(NC(C)=O)cc(CC)n1`: 74 to 78 °C.

On to `COc1cc(OC)cc(C(=O)N2CCc3cc(O)c(OC)cc3C2=O)c1`, for which the melting point lay in the range of 198 to 199 °C. With `CC(C)c1ccc(N(Cc2ccc(N(C)C)cc2)C(=O)C2CCOc3ccc(F)cc32)cc1` (centres undefined) the figure was 95 to 98 °C; with `CON=Cc1ccc2c(c1)ncn2-c1cccc(-c2nccs2)c1`, 154 to 160 °C; with `CON=C(Nc1nc(OC)nc(OC)n1)NS(=O)(=O)c1ccccc1S(=O)(=O)OC`, 148 to 150 °C. `Cc1oc(-c2ccccc2)nc1COc1ccc(COc2ccc(O)cc2CC#N)cc1` returned a melting point of 185 to 186 °C.

`CCOC(=O)/C(=N\OCc1ccccc1)c1csc(N)n1` displayed a melting point of 133 to 134 °C. Next, `COP(C)(=O)C(O)[C@H](CC1CCCCC1)NC(=O)[C@H](CC(C)C)NC(=O)CCc1ccccc1` (some centres undefined): 165 to 170 °C; `CC1=C(C(=O)OCc2ccccc2)C(c2ccccc2Cl)c2c[nH]nc2N1` (centres undefined): 234 °C; `N#CCCCCCCc1nc(-c2ccc(Cl)cc2)c(-c2ccc(Cl)cc2)o1`: 64 °C. Take `O=C(Nc1ccc(Oc2ccnc(NCC3CCCO3)n2)c2ccccc12)c1cc(F)cc(N2CCOCC2)c1` (centres undefined): the melting point was 103 to 105 °C. As to `CC1C(=O)N(c2ccc(O)cc2)C(=S)N1c1ccc(Oc2ccccc2)cc1` (centres undefined), the melting point was 202 to 204 °C. In turn, `COC(=O)c1c(Br)cc(Br)cc1NC(=O)NCc1ccccc1` showed a melting point above 280 °C.

On to `Clc1ccccc1CSc1nnc(-c2ccc3c(c2)CCO3)o1`, for which the melting point was in the range of 140 to 141 °C.

The compound `CC(C)(C)c1ccc(C(=O)Nc2cn3nc(NC4CCCC4)ccc3n2)cc1` came in with a melting point of 272 to 273 °C. Turning to `CC(=O)Oc1coc(-c2cccc(N)c2)cc1=O`, the melting point lay in the range of 127 to 129 °C. Turning to `Cc1cccc2nn(-c3cc(O)ccc3O)nc12`, the melting point was 202 to 203 °C. `C=CCOc1ccccc1-c1nc2c(CCC)nn(C)c2c(=O)[nH]1` had a melting point of 116 to 119 °C. In turn, `CNC(=O)[C@@H](NC(=O)[C@@H](CC(C)C)C(C(=O)O)C(=O)O)C(C)(C)C` showed a melting point of 101 °C. For the compound `CCNc1nc(N)c(SC)c(Cl)n1`, the melting point was 124 °C.

Compound `COc1cc(COc2nn(-c3ccc(C(F)(F)F)cc3)cc2/C=C/CO)ccc1OCc1nc(-c2ccccc2)oc1C` yielded a melting point of 118 to 119 °C. `CN(C)C[C@@H]1NCCC[C@H]1O` (relative stereo) gave a melting point of 50 to 60 °C. Compound `CC(C)OC(=O)C(C(=O)O)c1ccccc1` (centres undefined) had a melting point of 64 to 66 °C. With `OCc1cc2cnc(Cl)nc2n1C1CCCC1` the figure was 174 to 176 °C; with `CC(C)(C)OC(=O)N1CCC(C#N)(c2ccc(Cl)c(Cl)c2)CC1`, 142 to 145 °C; with `CCc1cc(C)cc(CC)c1C1C(=O)CC2(CCOCC2)CC1=O`, 139 to 141 °C. Consider `Cc1nc(-n2ccc(OCCC3CC3)cc2=O)sc1C(=O)NCc1ccccc1`, for which the melting point was in the range of 172 to 174 °C. Consider `Cc1c(-c2ccc(OC3CCCC3)cc2)n(Cc2ccc(OCCO)cc2)c2ccc(OCc3ccccc3)cc12`, for which the melting point was 129 to 131 °C. `COc1ccc(-n2c(=O)[nH]c3c(C(N)=O)nc(-c4cccc(O)c4)nc32)c(F)c1`: the melting point is above 260 °C. `CCOC(=O)CC1(c2ccccc2)CCN(C(c2ccccc2)(c2ccccc2)c2ccccc2)CC1` had a melting point of 120 °C. `COc1c(Cl)cc(-c2ccc(=O)[nH]n2)cc1Cl` came in with a melting point of 245 to 251 °C. Next, `COc1cccc(-c2cc(C)cc3c2OC(CN)C3)c1OC` (centres undefined): 97 to 99 °C. The compound `O=C(c1ccccc1Cl)c1c(O)nn(-c2c(Cl)cc(Cl)cc2Cl)c1N1C(=O)c2ccccc2C1=O` came in with a melting point of 245 to 246 °C. For the compound `CCOC(=O)C=CC=Cc1cn(-c2cccnc2)c2ccccc12`, the melting point lay in the range of 112 to 113 °C.
